Results published in the NIST ThermoML archive (doi:10.1021/je700260f).

Settings: 313.15 K, Liquid, Vibrating tube method

FC(C(F)(F)F)C(F)(F)F [1,1,1,2,3,3,3-heptafluoropropane]
Settings | mass density [kg/m3]
20571 kPa | 1453
20603 kPa | 1453
20639 kPa | 1453.2
20675 kPa | 1453.5
20721 kPa | 1453.6
20757 kPa | 1453.8
20799 kPa | 1454.1
20826 kPa | 1454.2
20865 kPa | 1454.4
20902 kPa | 1454.4
20933 kPa | 1454.7
20969 kPa | 1454.7
21003 kPa | 1454.9
21049 kPa | 1455
21080 kPa | 1455.2
21213 kPa | 1455.8
21240 kPa | 1455.9
21275 kPa | 1456
21319 kPa | 1456.3
21355 kPa | 1456.5
21405 kPa | 1456.7
21435 kPa | 1456.8
21466 kPa | 1456.9
21512 kPa | 1457.1
21547 kPa | 1457.2
21593 kPa | 1457.5
21628 kPa | 1457.6
21665 kPa | 1457.8
21700 kPa | 1457.8
21742 kPa | 1458
21776 kPa | 1458.2
21813 kPa | 1458.3
21844 kPa | 1458.5
21885 kPa | 1458.7
21927 kPa | 1458.9
21953 kPa | 1459
21990 kPa | 1459.2
22027 kPa | 1459.2
22064 kPa | 1459.5
22100 kPa | 1459.6
22131 kPa | 1459.8
22172 kPa | 1459.9
22203 kPa | 1460.1
22245 kPa | 1460.1
22276 kPa | 1460.2
22312 kPa | 1460.6
22349 kPa | 1460.5
22385 kPa | 1460.8
22411 kPa | 1460.8
22447 kPa | 1461
22489 kPa | 1461.3
22532 kPa | 1461.4
22579 kPa | 1461.6
22611 kPa | 1461.7
22653 kPa | 1461.9
22684 kPa | 1462.2
22722 kPa | 1462.2
22758 kPa | 1462.5
22796 kPa | 1462.5
22828 kPa | 1462.7
22876 kPa | 1462.9
22922 kPa | 1463.1
22954 kPa | 1463.3
22986 kPa | 1463.2
23028 kPa | 1463.7
23054 kPa | 1463.7
23096 kPa | 1463.7
23132 kPa | 1464
23180 kPa | 1464.2
23217 kPa | 1464.3
23384 kPa | 1465
23422 kPa | 1465.2
23463 kPa | 1465.3
23511 kPa | 1465.4
23548 kPa | 1465.7
23585 kPa | 1465.8
23623 kPa | 1466
23672 kPa | 1466.2
23710 kPa | 1466.2
23760 kPa | 1466.5
23805 kPa | 1466.6
23840 kPa | 1466.9
23893 kPa | 1467
23939 kPa | 1467.2
23980 kPa | 1467.2
24015 kPa | 1467.5
24073 kPa | 1467.7
24121 kPa | 1467.8
24163 kPa | 1468.1
24204 kPa | 1468.4
24258 kPa | 1468.6
24299 kPa | 1468.7
24341 kPa | 1468.9
24400 kPa | 1469.2
24441 kPa | 1469.3
24471 kPa | 1469.4
24517 kPa | 1469.5
24552 kPa | 1469.6
24586 kPa | 1469.7
24643 kPa | 1470
24690 kPa | 1470.3
24731 kPa | 1470.4
24772 kPa | 1470.6
24813 kPa | 1470.8
24848 kPa | 1470.8
24899 kPa | 1471.1
24951 kPa | 1471.3
24991 kPa | 1471.5
25031 kPa | 1471.7
25225 kPa | 1472.4
25266 kPa | 1472.5
25303 kPa | 1472.6
25346 kPa | 1472.9
25382 kPa | 1473
25428 kPa | 1473.2
25464 kPa | 1473.3
27024 kPa | 1479.1
27078 kPa | 1479.5
27113 kPa | 1479.5
27168 kPa | 1479.8
27215 kPa | 1479.9
27250 kPa | 1480.2
27333 kPa | 1480.4
27378 kPa | 1480.4
27415 kPa | 1480.8
27452 kPa | 1480.9
27512 kPa | 1481.1
27562 kPa | 1481.4
27616 kPa | 1481.6
27789 kPa | 1482.1
27894 kPa | 1482.6
27923 kPa | 1482.7
27959 kPa | 1482.7
27997 kPa | 1482.8
28031 kPa | 1483
28065 kPa | 1483.1
28094 kPa | 1483.2
28137 kPa | 1483.5
28166 kPa | 1483.6
28213 kPa | 1483.6
28253 kPa | 1483.8
28282 kPa | 1484
28311 kPa | 1484
28349 kPa | 1484.3
28389 kPa | 1484.3
28424 kPa | 1484.5
28465 kPa | 1484.6
28499 kPa | 1484.8
28538 kPa | 1484.9
28567 kPa | 1485
28613 kPa | 1485.2
28643 kPa | 1485.2
28674 kPa | 1485.3
28717 kPa | 1485.6
28761 kPa | 1485.7
29100 kPa | 1487
29135 kPa | 1487
29166 kPa | 1487.2
29208 kPa | 1487.3
29239 kPa | 1487.5
29269 kPa | 1487.5
29305 kPa | 1487.6
29341 kPa | 1487.9
29381 kPa | 1487.9
29416 kPa | 1488
29450 kPa | 1488.1
29496 kPa | 1488.3
29525 kPa | 1488.6
29570 kPa | 1488.6
29610 kPa | 1488.7
31429 kPa | 1495.1
31477 kPa | 1495.4
31513 kPa | 1495.4
31554 kPa | 1495.6
31782 kPa | 1496.5
31819 kPa | 1496.4
31856 kPa | 1496.6
31894 kPa | 1496.7
31931 kPa | 1496.9
31964 kPa | 1497
32008 kPa | 1497.3
32040 kPa | 1497.3
32094 kPa | 1497.4
32170 kPa | 1497.7
32235 kPa | 1497.9
32288 kPa | 1498.1
32326 kPa | 1498.2
32700 kPa | 1499.5
33062 kPa | 1500.7
33127 kPa | 1500.8
33176 kPa | 1501.1
33220 kPa | 1501.2
33258 kPa | 1501.4
33290 kPa | 1501.5
33332 kPa | 1501.7
33375 kPa | 1501.7
33408 kPa | 1501.8
33462 kPa | 1501.9
33502 kPa | 1502.1
33551 kPa | 1502.5
33585 kPa | 1502.3
33640 kPa | 1502.6
33684 kPa | 1502.6
33729 kPa | 1502.8
33763 kPa | 1503
33807 kPa | 1503.2
